Laboratory results taken from the CombiSolv-Exp solvation set (Vermeire and Green 2021).
Each block holds one molecule with its values, some of them ahead of it.

Assay: solvent given as SMILES
[1] = in CCCCCCCCC=CCCCCCCCC(=O)OCC(COC(=O)CCCCCCCC=CCCCCCCCC)OC(=O)CCCCCCCC=CCCCCCCCC

Structure (SMILES): C=CCCCC
solvation free energy, 298 K (in C1CCC2CCCCC2C1): -3.67 kcal/mol
solvation free energy, 298 K (in C1CCC(C2CCCCC2)CC1): -3.65 kcal/mol
solvation free energy, 298 K (in C=CCCCCCCCCCCCCCC): -3.48 kcal/mol
solvation free energy, 298 K (in CC#N): -2.96 kcal/mol
solvation free energy, 298 K (in CC(C)CC(C)(C)C): -3.78 kcal/mol
solvation free energy, 298 K (in CCC#N): -3.49 kcal/mol
solvation free energy, 298 K (in CCCC#N): -3.2 kcal/mol
solvation free energy, 298 K (in CCCCC(CC)COC(=O)CCCCC(=O)OCC(CC)CCCC): -3.36 kcal/mol
solvation free energy, 298 K (in CCCCC(CC)COC(=O)c1ccccc1C(=O)OCC(CC)CCCC): -3.18 kcal/mol
solvation free energy, 298 K (in CCCCCCC): -3.83 kcal/mol
solvation free energy, 298 K [1]: -3.41 kcal/mol
solvation free energy, 298 K (in CCCCCCCCCCCCCCCC): -3.51 kcal/mol
solvation free energy, 298 K (in CCCCCCCCO): -3.29 kcal/mol
solvation free energy, 298 K (in CCCCCO): -3.3 kcal/mol
solvation free energy, 298 K (in CCCCO): -3.22 kcal/mol
solvation free energy, 298 K (in CCCCOC(=O)c1ccccc1C(=O)OCCCC): -3.37 kcal/mol
solvation free energy, 298 K (in CCN1CCCC1=O): -3.11 kcal/mol
solvation free energy, 298 K (in CCN(CC)C(C)=O): -3.26 kcal/mol
solvation free energy, 298 K (in CCNC(C)=O): -3.04 kcal/mol
solvation free energy, 298 K (in CCNC=O): -2.85 kcal/mol
solvation free energy, 298 K (in CCOC(=O)c1ccccc1C(=O)OCC): -2.96 kcal/mol
solvation free energy, 298 K (in CN1CCCC1=O): -2.91 kcal/mol
solvation free energy, 298 K (in CN1CCCCC1=O): -3.06 kcal/mol
solvation free energy, 298 K (in CN1CCN(C)C1=O): -2.83 kcal/mol
solvation free energy, 298 K (in CN(C)C=O): -2.96 kcal/mol
solvation free energy, 298 K (in CNC=O): -2.55 kcal/mol
solvation free energy, 298 K (in COC(C)=O): -3.51 kcal/mol
solvation free energy, 298 K (in CS(C)=O): -2.1 kcal/mol
solvation free energy, 298 K (in Cc1cccc(C)c1): -3.74 kcal/mol
solvation free energy, 298 K (in N#CCCCCC#N): -2.31 kcal/mol
solvation free energy, 298 K (in N#Cc1ccccc1): -3.15 kcal/mol
solvation free energy, 298 K (in NC=O): -0.91 kcal/mol
solvation free energy, 298 K (in NCCO): -1.17 kcal/mol
solvation free energy, 298 K (in Nc1ccccc1): -2.68 kcal/mol
solvation free energy, 298 K (in O): 1.58 kcal/mol
solvation free energy, 298 K (in O=C1CCCO1): -2.49 kcal/mol
solvation free energy, 298 K (in O=CN1CCOCC1): -2.37 kcal/mol
solvation free energy, 298 K (in O=Cc1ccco1): -2.62 kcal/mol
solvation free energy, 298 K (in OCCO): -1.11 kcal/mol
solvation free energy, 298 K (in OCCOCCO): -1.73 kcal/mol
solvation free energy, 298 K (in OCCOCCOCCO): -1.83 kcal/mol
solvation free energy, 298 K (in OCCOCCOCCOCCO): -1.94 kcal/mol
solvation free energy, 298 K (in OCc1ccco1): -2.53 kcal/mol
solvation free energy, 298 K (in c1ccc2c(c1)CCCC2): -3.69 kcal/mol
solvation free energy, 298 K (in c1ccc(C2CCCCC2)cc1): -3.63 kcal/mol

Structure (SMILES): COC(CC#N)(OC)OC
solvation free energy, 298 K (in O): -6.4 kcal/mol

Structure (SMILES): Clc1ccc(Cl)c(-c2ccccc2)c1
solvation free energy, 298 K (in O): -2.46 kcal/mol

Structure (SMILES): CCCCCN(CCCCC)N=O
solvation free energy, 298 K (in CC(C)CC(C)(C)C): -9.29 kcal/mol

Structure (SMILES): Oc1ccc(Cl)c(Cl)c1
solvation free energy, 298 K (in O): -7.29 kcal/mol

Structure (SMILES): O=[O+][O-]
solvation free energy, 298 K (in COC(C)=O): -0.29 kcal/mol
solvation free energy, 298 K (in O): 0.82 kcal/mol

Structure (SMILES): CC1CCCC(O)C1 (stereo unspecified)
solvation free energy, 298 K (in O): -5.21 kcal/mol

Structure (SMILES): CC(C)(C)Br
solvation free energy, 298 K (in Brc1ccccc1): -3.89 kcal/mol
solvation free energy, 298 K (in C1CCOC1): -3.87 kcal/mol
solvation free energy, 298 K (in C1COCCO1): -3.81 kcal/mol
solvation free energy, 298 K (in C=CCCCCCCCCCCCCCC): -3.56 kcal/mol
solvation free energy, 298 K (in CC(=O)N(C)C): -3.52 kcal/mol
solvation free energy, 298 K (in CC(C)(C)O): -3.36 kcal/mol
solvation free energy, 298 K (in CC(C)=O): -3.86 kcal/mol
solvation free energy, 298 K (in CC(C)O): -3.23 kcal/mol
solvation free energy, 298 K (in CCCCCC): -3.75 kcal/mol
solvation free energy, 298 K (in CCCCO): -3.3 kcal/mol
solvation free energy, 298 K (in CCCO): -3.19 kcal/mol
solvation free energy, 298 K (in CCOC(C)=O): -4.05 kcal/mol
solvation free energy, 298 K (in CCOCC): -3.85 kcal/mol
solvation free energy, 298 K (in CN1CCCC1=O): -3.44 kcal/mol
solvation free energy, 298 K (in CN(C)C=O): -3.59 kcal/mol
solvation free energy, 298 K (in ClC(Cl)(Cl)Cl): -4.13 kcal/mol
solvation free energy, 298 K (in ClCCCl): -4.02 kcal/mol
solvation free energy, 298 K (in Clc1ccccc1): -3.93 kcal/mol
solvation free energy, 298 K (in N#Cc1ccccc1): -3.64 kcal/mol
solvation free energy, 298 K (in O): 0.85 kcal/mol

Structure (SMILES): COC(=O)c1ccccc1O
solvation free energy, 298 K (in Cc1ccc(C)cc1): -7.64 kcal/mol

Structure (SMILES): CC(C)C(=O)C(C)C
solvation free energy, 298 K (in O): -2.56 kcal/mol

Structure (SMILES): Nc1ccccc1[N+](=O)[O-]
solvation free energy, 298 K (in CC(C)CC(C)(C)C): -7.5 kcal/mol
solvation free energy, 298 K (in CCCCCC): -7.51 kcal/mol
solvation free energy, 298 K (in O): -7.43 kcal/mol

Structure (SMILES): CCOC(C)(C)C
solvation free energy, 298 K (in C1CCCCC1): -4.12 kcal/mol
solvation free energy, 298 K (in CC(=O)N(C)C): -3.53 kcal/mol
solvation free energy, 298 K (in CCCCCC): -4.07 kcal/mol
solvation free energy, 298 K (in CCCCCCC): -3.98 kcal/mol
solvation free energy, 298 K (in CCCCCCCCO): -3.67 kcal/mol
solvation free energy, 298 K (in CCCCN(C=O)CCCC): -3.6 kcal/mol
solvation free energy, 298 K (in CCN1CCCC1=O): -3.42 kcal/mol
solvation free energy, 298 K (in CCN(CC)C(C)=O): -3.66 kcal/mol
solvation free energy, 298 K (in CCNC(C)=O): -3.49 kcal/mol
solvation free energy, 298 K (in CCNC=O): -3.38 kcal/mol
solvation free energy, 298 K (in CCOCC): -4.22 kcal/mol
solvation free energy, 298 K (in CN1CCCCC1=O): -3.44 kcal/mol
solvation free energy, 298 K (in CN(C)C=O): -3.31 kcal/mol
solvation free energy, 298 K (in CNC(C)=O): -3.4 kcal/mol
solvation free energy, 298 K (in CNC=O): -3.21 kcal/mol
solvation free energy, 298 K (in CO): -4.07 kcal/mol
solvation free energy, 298 K (in O): -1.61 kcal/mol

Structure (SMILES): Clc1ccc(C(c2ccccc2Cl)C(Cl)(Cl)Cl)cc1 (stereo unspecified)
solvation free energy, 298 K [1]: -13.8 kcal/mol
solvation free energy, 298 K (in O): -5.31 kcal/mol

Structure (SMILES): CC(Cl)Cl
solvation free energy, 298 K (in CCCCCCCCO): -3.29 kcal/mol
solvation free energy, 298 K (in ClC(Cl)(Cl)Cl): -3.78 kcal/mol
solvation free energy, 298 K (in ClC(Cl)Cl): -4.11 kcal/mol
solvation free energy, 298 K (in ClCCCl): -4.02 kcal/mol
solvation free energy, 298 K (in O): -0.84 kcal/mol

Structure (SMILES): CCOP(=S)(OCC)SCSCC
solvation free energy, 298 K (in O): -4.37 kcal/mol

Structure (SMILES): C=CCC=C
solvation free energy, 298 K (in CN(C)C=O): -2.62 kcal/mol
solvation free energy, 298 K (in O): 0.94 kcal/mol

Structure (SMILES): CC1=C2CC3CCC(C)C2(CC1)C3(C)C (stereo unspecified)
solvation free energy, 298 K (in O): 0.78 kcal/mol

Structure (SMILES): CCOC=O
solvation free energy, 298 K (in C=CCCCCCCCCCCCCCC): -2.62 kcal/mol
solvation free energy, 298 K (in CC(C)O): -3.15 kcal/mol
solvation free energy, 298 K (in CCC(C)=O): -3.71 kcal/mol
solvation free energy, 298 K (in CCCCCCCCCCCCCCCC): -2.55 kcal/mol
solvation free energy, 298 K (in CCCCCCCCO): -2.98 kcal/mol
solvation free energy, 298 K (in ClC(Cl)(Cl)Cl): -3.33 kcal/mol
solvation free energy, 298 K (in ClC(Cl)Cl): -4.37 kcal/mol
solvation free energy, 298 K (in O): -2.64 kcal/mol
solvation free energy, 298 K (in [2H]O[2H]): -2.64 kcal/mol

Structure (SMILES): O=C1CCCO1
solvation free energy, 298 K (in CC(C)CC(C)(C)C): -4.99 kcal/mol

The remaining lines, values ahead:

solvation free energy, 298 K (in O): -11.3 kcal/mol
Structure (SMILES): CC(C(=O)O)c1ccc(N2CC=CC2)c(Cl)c1 (stereo unspecified)

solvation free energy, 298 K (in O): 0.14 kcal/mol
Structure (SMILES): C=C1C=CC(C(C)C)CCC(C)=CCC1 (stereo unspecified)

solvation free energy, 298 K (in O): -0.12 kcal/mol
Structure (SMILES): C=C1C=CC2(C(C)C)CC12 (stereo unspecified)

solvation free energy, 298 K (in CCCCCCC): -7.82 kcal/mol
Structure (SMILES): N#CCCOCCC#N

solvation free energy, 298 K (in O): -11.5 kcal/mol
Structure (SMILES): Cc1ccc(N(O)C(=O)c2ccccc2C)cc1

solvation free energy, 298 K (in CN(C)C=O): -10.8 kcal/mol
solvation free energy, 298 K (in O): -6.79 kcal/mol
Structure (SMILES): COC(=O)c1cccc([N+](=O)[O-])c1

solvation free energy, 298 K (in O): -5.5 kcal/mol
Structure (SMILES): CC(=O)OCCc1ccccc1

solvation free energy, 298 K (in O): -6.68 kcal/mol
Structure (SMILES): CCCCCCCOC(=O)c1ccccc1C(=O)OCCCCCCC

solvation free energy, 298 K (in O): -2.55 kcal/mol
Structure (SMILES): COc1cc(Cl)c(Cl)c(Cl)c1Cl

solvation free energy, 298 K (in O): 4.12 kcal/mol
Structure (SMILES): CCCCCCCCCCCCC
